Laboratory results from paper PMC3793860, “A role for the vesicle-associated tubulin binding protein ARL6 (BBS3) in flagellum extension in Trypanosoma brucei” (Biochimica et Biophysica Acta, 2012).

Target: T1, TbARL6 (Trypanosoma brucei, UniProt Q57UH8)
T1 construct: gene Tb08.5H5.790; N-terminal His-tagged recombinant TbARL6 (nucleotides 1–570 of the ORF, Tb927.8.5060), expressed in E. coli
T1 sequence (Q57UH8 1-189): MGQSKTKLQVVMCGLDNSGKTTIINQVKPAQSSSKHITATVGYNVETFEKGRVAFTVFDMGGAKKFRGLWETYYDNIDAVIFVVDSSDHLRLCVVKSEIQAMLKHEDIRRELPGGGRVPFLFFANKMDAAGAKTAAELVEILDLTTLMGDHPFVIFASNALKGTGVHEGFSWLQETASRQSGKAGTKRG
Test: mant fluorescence titration, one-site non-linear regression; displacement kinetics
Format: binding

Compound	Kd [µM]
CNc1ccccc1C(=O)O[C@H]1[C@@H](O)[C@H](n2cnc3c(=O)[nH]c(N)nc32)O[C@@H]1COP(=O)(O)OP(=O)(O)O [mGDP, mantGDP]	4.35
CNc1ccccc1C(=O)O[C@H]1[C@@H](O)[C@H](n2cnc3c(=O)[nH]c(N)nc32)O[C@@H]1COP(=O)(O)OP(=O)(O)OP(=O)(O)O [mGTP, mantGTP]	13.7
